According to patent US6458765B1, “Dolastatin 15 derivatives” (BASF Aktiengesellschaft, priority 1997, dated 2002):

Key:
[1] = system: P388 lymphocytic leukemia (PS system) cell line; conditions: National Cancer Institute's P388 (PS system); cited from earlier work
[2] = synthetic Dolastatin 15; cited from earlier work
[3] = system: HT-29 colon carcinoma cells; format: cell-based

Row | Substance | IC50 [3] [nM] | further results
1 | Dolastatin 15 | – | inhibition of growth of P388 cell line [1]: markedly inhibits the growth; solubility in aqueous systems [2]: poor solubility
2 | Me2Aib-Val-MeVal-Pro-Pro-NHBn [Compound 3] | 35 | –
3 | Xad Val Xaa Pro Xap [Compound 13] | 1 | –
4 | Xae Val Xaa Pro Xab [Compound 8] | 510 | –
5 | Xam Val Xaa Pro Xab [Compound 10] | 130 | –
6 | Xao Val Xaa Pro Xab [Compound 12] | 370 | –
7 | Xaq Val Xaa Pro Xab [Compound 14] | 1.5 | –
8 | Xar Val Xaa Pro Xab [Compound 15] | 170 | –
9 | Xas Val Xaa Pro Xab [Compound 16] | 0.73 | –
10 | Xat Val Xaa Pro Xab [Compound 17] | 63 | –
11 | Xat Val Xaa Pro Xab [Compound 18] | 8.8 | –
12 | Xau Val Xaa Pro Xab [Compound 76] | 0.23 | –
13 | Xau Val Xaa Pro Xab [Compound 77] | 7.2 | –
14 | Xau Val Xaa Pro Xbp [Compound 73] | 1.4 | –
15 | Xau Val Xaa Pro Xbp [Compound 96] | 1.7 | –
16 | Xau Val Xaa Pro Xbp [Compound 97] | 32 | –
17 | Xau Val Xaa Pro Xbx [Compound 74] | 51 | –
18 | Xau Val Xaa Pro Xcb [Compound 78] | 4.3 | –
19 | Xau Val Xaa Pro Xcc [Compound 90] | 0.93 | –
20 | Xau Val Xaa Pro Xcd [Compound 91] | 0.83 | –
21 | Xaw Val Xaa Pro Xbn [Compound 45] | 56 | –
22 | Xaw Val Xaa Pro Xbp [Compound 48] | 25 | –
23 | Xaw Val Xaa Pro Xbq [Compound 51] | 46 | –

Row | Substance | IC50 [3] [nM] | further results
24 | Xaw Val Xaa Pro Xbr [Compound 52] | 340 | –
25 | Xaw Val Xaa Pro Xbx [Compound 66] | 340 | –
26 | Xax Val Xaa Pro Xab [Compound 22] | 640 | –
27 | Xay Val Xaa Pro Xab [Compound 24] | 28 | –
28 | Xba Val Xaa Pro Xab [Compound 27] | 37 | –
29 | Xba Val Xaa Pro Xbp [Compound 100] | 2300 | –
30 | Xba Val Xaa Pro Xbp [Compound 101] | 2100 | –
31 | Xba Val Xaa Pro Xcb [Compound 92] | 1500 | –
32 | Xba Val Xaa Pro Xcb [Compound 93] | 1800 | –
33 | Xba Val Xaa Pro Xcc [Compound 102] | 120 | –
34 | Xba Val Xaa Pro Xcc [Compound 103] | 110 | –
35 | Xba Val Xaa Pro Xcd [Compound 104] | 3500 | –
36 | Xbb Val Xaa Pro Xab [Compound 28] | 49 | –
37 | Xbc Val Xaa Pro Xab [Compound 29] | 36 | –
38 | Xbd Val Xaa Pro Xab [Compound 30] | 6.1 | –
39 | Xbd Val Xaa Pro Xab [Compound 31] | 200 | –
40 | Xbe Val Xaa Pro Xab [Compound 32] | 850 | –
41 | Xbe Val Xaa Pro Xab [Compound 33] | 1200 | –
42 | Xbf Val Xaa Pro Xab [Compound 34] | 5 | –
43 | Xbf Val Xaa Pro Xab [Compound 43] | 59 | –
44 | Xbg Val Xaa Pro Xab [Compound 35] | 140 | –
45 | Xbh Val Xaa Pro Xab [Compound 36] | 6.2 | –
46 | Xbh Val Xaa Pro Xab [Compound 37] | 190 | –

Row | Substance | IC50 [3] [nM] | further results
47 | Xbi Val Xaa Pro Xab [Compound 38] | 730 | –
48 | Xbi Val Xaa Pro Xab [Compound 39] | 25 | –
49 | Xbi Val Xaa Pro Xbx [Compound 75] | 850 | –
50 | Xbi Val Xaa Pro Xcb [Compound 79] | 1700 | –
51 | Xbi Val Xaa Pro Xcb [Compound 80] | 67 | –
52 | Xbi Val Xaa Pro Xcc [Compound 81] | 130000 | –
53 | Xbi Val Xaa Pro Xcc [Compound 82] | 11 | –
54 | Xbi Val Xaa Pro Xcd [Compound 83] | 130 | –
55 | Xbi Val Xaa Pro Xcd [Compound 98] | 6 | –
56 | Xbk Val Xaa Pro Xab [Compound 40] | 560 | –
57 | Xbk Val Xaa Pro Xab [Compound 41] | 7300 | –
58 | Xbk Val Xaa Pro Xcc [Compound 84] | 1200 | –
59 | Xbk Val Xaa Pro Xcc [Compound 85] | 9500 | –
60 | Xbk Val Xaa Pro Xcd [Compound 99] | 3800 | –
61 | Xbl Val Xaa Pro Xab [Compound 42] | 340 | –
62 | Xbl Val Xaa Pro Xab [Compound 54] | 4.2 | –
63 | Xbl Val Xaa Pro Xab [Compound 55] | 56 | –
64 | Xbm Val Xaa Pro Xab [Compound 44] | 48 | –
65 | Xbo Val Xaa Pro Xbn [Compound 46] | 720 | –
66 | Xbo Val Xaa Pro Xbn [Compound 47] | 23 | –
67 | Xbo Val Xaa Pro Xbp [Compound 49] | 88 | –
68 | Xbo Val Xaa Pro Xbp [Compound 50] | 89 | –
69 | Xbo Val Xaa Pro Xbp [Compound 94] | 3000 | –

Row | Substance | IC50 [3] [nM] | further results
70 | Xbo Val Xaa Pro Xbp [Compound 95] | 11 | –
71 | Xbo Val Xaa Pro Xbq [Compound 64] | 1700 | –
72 | Xbo Val Xaa Pro Xbq [Compound 65] | 97 | –
73 | Xbo Val Xaa Pro Xbr [Compound 62] | 99 | –
74 | Xbo Val Xaa Pro Xbr [Compound 63] | 56 | –
75 | Xbo Val Xaa Pro Xbx [Compound 72] | 120 | –
76 | Xbs Val Xaa Pro Xbt [Compound 53] | 5 | –
77 | Xbs Val Xaa Pro Xbt [Compound 60] | 1.8 | –
78 | Xbv Val Xaa Pro Xab [Compound 57] | 25 | –
79 | Xbw Val Xaa Pro Xab [Compound 58] | 63 | –
80 | Xbw Val Xaa Pro Xab [Compound 59] | 190 | –
81 | Xby Val Xaa Pro Xab [Compound 67] | 340 | –
82 | Xbz Val Xaa Pro Xab [Compound 68] | 420 | –
83 | Xca Val Xaa Pro Xab [Compound 70] | 7100 | –
84 | Xce Val Xaa Pro Xab [Compound 105] | 18 | –
85 | Xcf Val Xaa Pro Xab [Compound 106] | 97 | –
86 | Xcg Val Xaa Pro Xab [Compound 108] | 7100 | –
87 | [N,N-Dimethyl-2-ethyl-2-phenylglycyl]-Val-MeVal-Pro-Pro-NHBn×HCl [Compound 4] | 1.2 | –
88 | [N-Methyl-D-Pro]-Val-MeVal-Pro-Pro-NHBn [Compound 5] | 5 | –
89 | [N-Methyl-D-piperidine-2-carbonyl]-Val-MeVal-Pro-Pro-NHBn [Compound 2] | 0.68 | –
90 | [N-Methyl-L-piperidine-2-carbonyl]-Val-MeVal-Pro-Pro-NHBn [Compound 1] | 47 | –
